Data taken from US20260325533A1, “CDK INHIBITOR COMPOUNDS” (ALEKSIA THERAPEUTICS, INC., priority 2023, published 2026).
Read-outs that look alike come from different tables or passages of the source.

How the values were obtained:
Assay type in all cases: biochemical
[1] = target: CDK6/CCND1 (Homo sapiens, UniProt Q00534); experiment: CDK6 homogeneous time-resolved fluorescence (HTRF) kinase assay; conditions: CDK6/CCND
In short: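 1 nM enzyme, 1 mM ATP, 50 nM ULight-4E-BP1 (Thr37/46) peptide, 1% DMSO; 20 min compound preincubation, 60 min reaction, 23 °C. EDTA stop, 2 nM Eu-anti-phospho-4E-BP1 antibody 60 min. TR-FRET 665 nm (or 665/615 ratio); IC50 from 11-point half-log titration, top 10 μM.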

[2] = target: CDK2/CCNE1 (Homo sapiens, UniProt P24941); experiment: CDK2 homogeneous time-resolved fluorescence (HTRF) kinase assay; conditions: CDK2/CCNE
In short: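 3 nM CDK2/CCNE1 was preincubated with compound for 20 min at 23 °C in HEPES buffer (pH not stated), then reacted 60 min with 1 mM ATP and 50 nM ULight-4E-BP1 (Thr37/46) peptide. After EDTA stop, Eu-anti-phospho-4E-BP1 antibody (2 nM) was added for 60 min and TR-FRET read at 665 nm.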

[3] = target: CDK4/CCND3 (Homo sapiens, UniProt P11802); experiment: CDK4 homogeneous time-resolved fluorescence (HTRF) kinase assay; conditions: CDK4/CCND
In short: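 Inhibition of CDK4/CCND3 (1.5 nM) was measured at high ATP (1 mM) using 50 nM ULight-labelled 4E-BP1 Thr37/46 peptide; detection used 2 nM europium anti-phospho antibody after EDTA quench. IC50 values came from 11-point half-log titrations typically starting at 10 μM.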

[4] = target: CDK1/CCNB1 (Homo sapiens, UniProt P06493); experiment: CDK1 homogeneous time-resolved fluorescence (HTRF) kinase assay; conditions: CDK1/CCNB
In short: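 Read-out: TR-FRET (Eu anti-phospho-4E-BP1 Thr37/46 antibody, 2 nM; 665 nm or 665/615 ratio) after 60 min phosphorylation of 50 nM ULight-peptide by 0.5 nM CDK1/CCNB1 at 1 mM ATP, 23 °C. Compound preincubated 20 min with enzyme; 1% DMSO.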

[5] = >250 nM marked x, read-out: CDK6/CCND IC50 >250 nM
[6] = <25 nM, read-out: CDK2/CCNE IC50 <25 nM
[7] = >250 nM marked x, read-out: CDK4/CCND IC50 >250 nM
[8] = >250 nM marked x, read-out: CDK1/CCNB IC50 >250 nM
[9] = 25-250 nM marked x, read-out: CDK2/CCNE IC50 25-250 nM
[10] = 25-250 nM marked x, read-out: CDK4/CCND IC50 25-250 nM
[11] = 25-250 nM marked x, read-out: CDK1/CCNB IC50 25-250 nM

Chain of CDK4/CCND3 (P11802 whole entry): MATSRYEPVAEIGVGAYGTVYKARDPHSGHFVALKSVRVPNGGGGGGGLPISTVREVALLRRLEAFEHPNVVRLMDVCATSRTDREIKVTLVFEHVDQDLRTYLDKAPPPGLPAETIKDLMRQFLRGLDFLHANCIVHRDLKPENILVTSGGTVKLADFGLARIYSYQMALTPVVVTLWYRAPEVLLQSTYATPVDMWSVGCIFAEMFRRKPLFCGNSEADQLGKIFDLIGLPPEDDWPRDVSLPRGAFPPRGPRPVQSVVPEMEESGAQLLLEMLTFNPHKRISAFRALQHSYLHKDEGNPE
Chain of CDK4/CCND3 (P30281 whole entry partner): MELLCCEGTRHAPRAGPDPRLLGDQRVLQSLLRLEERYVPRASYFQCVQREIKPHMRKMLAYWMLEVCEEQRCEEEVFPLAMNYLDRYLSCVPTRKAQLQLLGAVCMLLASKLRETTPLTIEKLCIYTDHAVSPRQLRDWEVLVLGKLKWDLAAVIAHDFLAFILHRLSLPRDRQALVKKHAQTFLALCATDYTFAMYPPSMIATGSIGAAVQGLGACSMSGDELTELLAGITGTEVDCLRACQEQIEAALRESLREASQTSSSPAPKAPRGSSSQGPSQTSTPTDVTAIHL
Chain of CDK6/CCND1 (Q00534 whole entry): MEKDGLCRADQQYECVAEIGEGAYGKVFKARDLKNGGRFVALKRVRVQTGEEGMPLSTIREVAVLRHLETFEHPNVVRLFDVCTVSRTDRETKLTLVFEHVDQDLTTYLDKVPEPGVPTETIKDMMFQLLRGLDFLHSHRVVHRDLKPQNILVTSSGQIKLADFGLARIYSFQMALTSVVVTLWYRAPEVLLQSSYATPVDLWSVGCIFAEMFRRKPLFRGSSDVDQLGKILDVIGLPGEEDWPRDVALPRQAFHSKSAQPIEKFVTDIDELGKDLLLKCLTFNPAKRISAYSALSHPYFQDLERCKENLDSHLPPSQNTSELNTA
Chain of CDK6/CCND1 (P24385 whole entry partner): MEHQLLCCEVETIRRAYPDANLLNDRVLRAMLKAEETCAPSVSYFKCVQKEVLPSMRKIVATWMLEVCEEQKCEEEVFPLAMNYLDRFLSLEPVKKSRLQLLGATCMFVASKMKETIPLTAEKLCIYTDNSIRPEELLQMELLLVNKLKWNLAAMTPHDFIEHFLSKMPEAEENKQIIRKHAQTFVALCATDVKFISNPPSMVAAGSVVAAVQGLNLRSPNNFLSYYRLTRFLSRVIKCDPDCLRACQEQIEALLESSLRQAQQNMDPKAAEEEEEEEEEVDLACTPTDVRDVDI
Chain of CDK1/CCNB1 (P06493 whole entry): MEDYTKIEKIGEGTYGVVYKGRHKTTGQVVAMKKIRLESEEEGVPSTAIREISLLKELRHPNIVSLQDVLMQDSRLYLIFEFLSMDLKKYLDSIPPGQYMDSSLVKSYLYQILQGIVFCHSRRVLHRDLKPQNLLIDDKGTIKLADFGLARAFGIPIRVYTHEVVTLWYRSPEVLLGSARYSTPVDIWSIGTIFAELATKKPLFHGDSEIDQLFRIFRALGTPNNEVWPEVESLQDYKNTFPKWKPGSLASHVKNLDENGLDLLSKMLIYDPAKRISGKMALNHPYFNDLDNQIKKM
Chain of CDK1/CCNB1 (P14635 whole entry partner): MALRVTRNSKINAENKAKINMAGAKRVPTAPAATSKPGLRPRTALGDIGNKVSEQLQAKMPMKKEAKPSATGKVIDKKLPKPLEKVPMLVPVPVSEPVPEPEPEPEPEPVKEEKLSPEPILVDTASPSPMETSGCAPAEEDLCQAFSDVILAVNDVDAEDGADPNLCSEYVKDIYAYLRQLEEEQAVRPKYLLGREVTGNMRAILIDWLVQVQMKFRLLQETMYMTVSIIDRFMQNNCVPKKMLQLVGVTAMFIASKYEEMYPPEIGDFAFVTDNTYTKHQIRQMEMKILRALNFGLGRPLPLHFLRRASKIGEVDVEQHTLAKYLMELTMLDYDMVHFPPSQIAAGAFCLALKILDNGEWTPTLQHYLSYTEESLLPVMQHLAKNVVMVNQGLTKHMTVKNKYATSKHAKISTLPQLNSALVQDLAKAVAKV

IC50 [1, 5] [nM] | IC50 [2, 6] [nM] | IC50 [3, 7] [nM] | IC50 [4, 8] [nM] | IC50 [2, 9] [nM] | IC50 ([2]; >250 nM marked x, read-out: CDK2/CCNE IC50 >250 nM) [nM] | IC50 ([1]; 25-250 nM marked x, read-out: CDK6/CCND IC50 25-250 nM) [nM] | IC50 [3, 10] [nM] | IC50 [4, 11] [nM] | Structure (SMILES)
> 250 | < 25 | > 250 | > 250 | – | – | – | – | – | CCS(=N)(=O)c1ccc(Nc2cc3c(C#Cc4ccc5c(c4)NC(=O)C54CC4)nccc3cn2)c(OC)c1 (single isomer, unassigned) [Ex 289, 6'-((7-((4-(ethylsulfonimidoyl)-2-methoxyphenyl)amino)-2,6-naphthyridin-1-yl)ethynyl)spiro[cyclopropane-1,3'-indolin]-2'-one]
> 250 | – | > 250 | > 250 | 25 to 250 | – | – | – | – | CCC1(CC)C(=O)Nc2cc(C#Cc3nccc4cnc(Nc5ccc(S(C)(=N)=O)cc5C(F)F)cc34)ccc21 (single isomer, unassigned) [Ex 294, 6-((7-((2-(difluoromethyl)-4-(S-methylsulfonimidoyl)phenyl)amino)-2,6-naphthyridin-1-yl)ethynyl)-3,3-diethylindolin-2-one]
> 250 | – | > 250 | > 250 | 25 to 250 | – | – | – | – | CCC1(CC)C(=O)Nc2cc(C#Cc3nccc4cnc(Nc5ccc(S(=N)(=O)C6CC6)cc5OC)cc34)ccc21 (single isomer, unassigned) [Ex 299, 6-((7-((4-(cyclopropanesulfonimidoyl)-2-methoxyphenyl)amino)-2,6-naphthyridin-1-yl)ethynyl)-3,3-diethylindolin-2-one]
> 250 | – | > 250 | > 250 | – | > 250 | – | – | – | CCC1(CC)C(=O)Nc2cc(C#Cc3nccc4cnc(Nc5ccc(S(=N)(=O)C6CC(F)(F)C6)cc5F)cc34)ccc21 (single isomer, unassigned) [Ex 301, 6-((7-((4-(3,3-difluorocyclobutane-1-sulfonimidoyl)-2-fluorophenyl)amino)-2,6-naphthyridin-1-yl)ethynyl)-3,3-diethylindolin-2-one]
> 250 | – | > 250 | > 250 | 25 to 250 | – | – | – | – | CCC1(CC)C(=O)Nc2cc(C#Cc3nccc4cnc(Nc5ccc(S(=N)(=O)C6CC(F)(F)C6)cc5)cc34)ccc21 (single isomer, unassigned) [Ex 303, 6-((7-((4-(3,3-difluorocyclobutane-1-sulfonimidoyl)phenyl)amino)-2,6-naphthyridin-1-yl)ethynyl)-3,3-diethylindolin-2-one]
> 250 | < 25 | > 250 | > 250 | – | – | – | – | – | COc1cc(S(C)(=N)=O)ccc1Nc1cc2c(C#Cc3ccc4c(c3)NC(=O)C43CC3)nccc2cn1 (single isomer, unassigned) [Ex 305, 6'-((7-((2-methoxy-4-(S-methylsulfonimidoyl)phenyl)amino)-2,6-naphthyridin-1-yl)ethynyl)spiro[cyclopropane-1,3'-indolin]-2'-one]
– | < 25 | – | – | – | – | 25 to 250 | 25 to 250 | 25 to 250 | N=S(=O)(c1ccc(Nc2cc3c(C#Cc4ccc5c(c4)NC(=O)C54CC4)nccc3cn2)cc1)C1CC1 (single isomer, unassigned) [Ex 306, 6'-((7-((4-(cyclopropanesulfonimidoyl)phenyl)amino)-2,6-naphthyridin-1-yl)ethynyl)spiro[cyclopropane-1,3'-indolin]-2'-one]
> 250 | – | > 250 | > 250 | 25 to 250 | – | – | – | – | CCC1(CC)C(=O)Nc2cc(C#Cc3nccc4cnc(Nc5ccc(S(=N)(=O)CC)cc5OC)cc34)ccc21 (single isomer, unassigned) [Ex 308, 3,3-diethyl-6-((7-((4-(ethylsulfonimidoyl)-2-methoxyphenyl)amino)-2,6-naphthyridin-1-yl)ethynyl)indolin-2-one]
> 250 | < 25 | > 250 | > 250 | – | – | – | – | – | CCS(=N)(=O)c1ccc(Nc2cc3c(C#Cc4ccc5c(c4)NC(=O)C54CCC4)nccc3cn2)c(OC)c1 (single isomer, unassigned) [Ex 310, 6'-((7-((4-(ethylsulfonimidoyl)-2-methoxyphenyl)amino)-2,6-naphthyridin-1-yl)ethynyl)spiro[cyclobutane-1,3'-indolin]-2'-one]
> 250 | – | > 250 | > 250 | 25 to 250 | – | – | – | – | COc1cc(S(C)(=N)=O)ccc1Nc1cc2c(C#Cc3ccc4c(c3)NC(=O)C43CCC3)nccc2cn1 (single isomer, unassigned) [Ex 313, 6'-((7-((2-methoxy-4-(S-methylsulfonimidoyl)phenyl)amino)-2,6-naphthyridin-1-yl)ethynyl)spiro[cyclobutane-1,3'-indolin]-2'-one]
> 250 | < 25 | > 250 | > 250 | – | – | – | – | – | CCC1(CC)C(=O)Nc2cc(C#Cc3nccc4cnc(Nc5ccc(S(=N)(=O)C6COC6)cc5C)cc34)ccc21 (single isomer, unassigned) [Ex 316, 3,3-diethyl-6-((7-((2-methyl-4-(oxetane-3-sulfonimidoyl)phenyl)amino)-2,6-naphthyridin-1-yl)ethynyl)indolin-2-one]
> 250 | – | > 250 | > 250 | 25 to 250 | – | – | – | – | CCC1(CC)C(=O)Nc2cc(C#Cc3nccc4cnc(Nc5ccc(S(=N)(=O)C6COC6)cc5OC)cc34)ccc21 (single isomer, unassigned) [Ex 317, 3,3-diethyl-6-((7-((2-methoxy-4-(oxetane-3-sulfonimidoyl)phenyl)amino)-2,6-naphthyridin-1-yl)ethynyl)indolin-2-one]
> 250 | – | > 250 | > 250 | 25 to 250 | – | – | – | – | CCC1(CC)C(=O)Nc2cc(C#Cc3nccc4cnc(Nc5ccc(S(C)(=N)=O)cc5OC)cc34)ccc21 (single isomer, unassigned) [Ex 319, 3,3-diethyl-6-((7-((2-methoxy-4-(S-methylsulfonimidoyl)phenyl)amino)-2,6-naphthyridin-1-yl)ethynyl)indolin-2-one]
> 250 | < 25 | > 250 | > 250 | – | – | – | – | – | COc1cc(S(=N)(=O)C2COC2)ccc1Nc1cc2c(C#Cc3ccc4c(c3)NC(=O)C43CC3)nccc2cn1 (single isomer, unassigned) [Ex 323, 6'-((7-((2-methoxy-4-(oxetane-3-sulfonimidoyl)phenyl)amino)-2,6-naphthyridin-1-yl)ethynyl)spiro[cyclopropane-1,3'-indolin]-2'-one]
> 250 | < 25 | – | – | – | – | – | 25 to 250 | 25 to 250 | Cc1cc(S(C)(=N)=O)ccc1Nc1cc2c(C#Cc3ccc4c(c3)NC(=O)C43CC3)nccc2cn1 (single isomer, unassigned) [Ex 326, 6'-((7-((2-methyl-4-(S-methylsulfonimidoyl)phenyl)amino)-2,6-naphthyridin-1-yl)ethynyl)spiro[cyclopropane-1,3'-indolin]-2'-one]
> 250 | < 25 | > 250 | > 250 | – | – | – | – | – | Cc1cc(S(C)(=N)=O)ccc1Nc1cc2c(C#Cc3ccc4c(c3)NC(=O)C43CCC3)nccc2cn1 (single isomer, unassigned) [Ex 332, 6'-((7-((2-methyl-4-(S-methylsulfonimidoyl)phenyl)amino)-2,6-naphthyridin-1-yl)ethynyl)spiro[cyclobutane-1,3'-indolin]-2'-one]
